Test results taken from patent US8337444B2, “Measurement of cardiac output and blood volume by non-invasive detection of indicator dilution for hemodialysis” (Alfred E. Mann Institute for Biomedical Engineering at the …, priority 2001, dated 2012).

Tests used:
[1] = Blood ICG concentration after high dose intravenous injection (calibration sequence); type: in vivo, New Zealand White rabbits; conditions: rabbit, 1 mg ICG intravenously, metabolized by the liver
Excerpt: A. A sample method and system for measuring cardiac output and blood volume. Experiments have been performed in New Zealand White rabbits (2.8-3.5 Kg) anesthetized with halothane and artificially ventilated with an oxygen-enriched gas mixture (Fio2˜0.4) to achieve a Sao2 above 99% and an end-tidal CO2 between 28 and 32 mm Hg (FIG. 4). The left femoral artery was cannulated for measurement of the arterial blood pressure throughout the procedure. A small catheter was positioned in the left brachial vein to inject the indicator, ICG. Body temperature was maintained with a heat lamp.
Calibration of the transcutaneous fluorescence intensity measured at the level of the animals' ear as a function of ICG concentration in blood was performed as follows. […]
As the liver metabolizes ICG, the blood ICG concentration decreases back to 0 in about 20 minutes. […] The fluorescence intensity of the blood in the cuvette was converted to a measurement of concentration using the known standard curve of fluorescence intensity versus ICG concentration established for the cuvette. ICG fluorescence was measured at the level of the ear at the exact time of the blood sample withdrawal. […]
For the range of concentrations used in these studies, ICG concentration and transcutaneous fluorescence were linearly related. […]

[2] = test system: blood proteins; conditions: protein-bound ICG not cleared by dialysis; cited from earlier work
[3] = cited from earlier work

CC1(C)C(/C=C/C=C/C=C/C=C2\N(CCCCS(=O)(=O)O)c3ccc4ccccc4c3C2(C)C)=[N+](CCCCS(=O)(=O)[O-])c2ccc3ccccc3c21 [ICG, indocyanine green]
time for blood ICG concentration to decrease back to 0 [1]: about 20 minutes
fraction of ICG injected in the bloodstream that binds to blood proteins [2]: more than 95%
stability in aqueous solution [3]: breaks down quickly
